The values below come from US11090285B2, “Treatment of circadian rhythm disorders” (Vanda Pharmaceuticals Inc., priority 2013, dated 2021).

Like-named read-outs stand apart in the source and are kept apart here. Some results are limits rather than exact numbers.

What is called t½ is the time needed for the level to fall by half in the phase considered.

The nature of data set [1]: Pharmacokinetics on co-administration of tasimelteon and fluvoxamine. The class given is in vivo, human. As to conditions: for AUC (inf), Geometric Mean Ratio / Cmax, Geometric Mean Ratio / t½, Geometric Mean Ratio: Day 8 vs Day 1; for half-life: read-out: t½ (converted). Here is the method:
Twenty-four healthy male or female subjects between the ages of 18 and 55 years of age (inclusive) who were non-smokers with a body mass index (BMI) of ≥18 and ≤35 kg/m2 participated in this open-label, single-sequence study conducted at one site. On day 1, subjects were administered […] of tasimelteon.

The nature of data set [2]: Effect of smoking on pharmacokinetics of tasimelteon and metabolites. The class given is in vivo, human. The arrangement: AUC (inf) / AUC(0-inf): concentration or dose not given beside the values. As to conditions: for AUC (inf), Geometric Mean Ratio / Cmax, Geometric Mean Ratio / t½, Geometric Mean Ratio: Smokers vs Non-Smokers; for half-life: read-out: t½ (converted). The source says: Smokers were defined as those smoking 10 or more cigarettes per day. Non-smokers were defined as those smoking no cigarettes per day.

For data set [3] the following is noted: in vivo; cited from earlier work.
Where [4] appears, read: Day 1, 5.667 mg tasimelteon alone.
[5] abbreviates: Day 8, 5.667 mg tasimelteon + 50 mg fluvoxamine.
Setting [6] is: Smokers (10 or more cigarettes per day).
Where [7] appears, read: both sexes, human, in vivo, Day 1, 5.667 mg tasimelteon alone, read-out: Cmax.
[8] abbreviates: both sexes, human, in vivo, Day 1, 5.667 mg tasimelteon alone, read-out: Tmax.
Where [9] appears, read: both sexes, human, in vivo, Day 1, 5.667 mg tasimelteon alone.
Setting [10] is: human, in vivo, Non-Smokers, read-out: Cmax.
Where [11] appears, read: human, in vivo, Smokers (10 or more cigarettes per day), read-out: Cmax.
The mark [12] stands for this setting: human, in vivo, Smokers, read-out: Tmax.

Consider `CCC(=O)NCC1CC1c1cccc2c1C(O)CO2` (stereo not drawn) [M12], for which, in data set [1] (setting [4]), the “AUC (inf)” value was found to be 189 ± 90.8 ng·h/mL, the Cmax was 31.0 ± 7.23 ng/mL, the Tmax came to 0.88 h and the t½ was determined as 3.03 ± 1.02 h. In addition, in data set [1] (setting [5]), the “AUC (inf)” value worked out at 435 ± 109.3 ng·h/mL, the Cmax was 30.8 ± 17.6 ng/mL, the Tmax turned out to be 3.00 h and the t½ came out at 7.03 ± 3.27 h. Also, in data set [1], the “AUC (inf), Geometric Mean Ratio” value is on record as 274.81%; the “Cmax, Geometric Mean Ratio” value was determined as 92.74%; the “t½, Geometric Mean Ratio” value came to 241.02%. In data set [2] (Non-Smokers), the “AUC (inf)” value amounted to 679 ± 433 ng·h/mL, the Cmax turned out to be 108 ± 29 ng/mL, the Tmax was 1.00 h and the t½ is 3.05 ± 1.73 h. For the same compound, in data set [2] (Smokers), the “AUC (inf)” value turned out to be 526 ± 193 ng·h/mL, the Tmax was 1.00 h and the t½ is 2.11 ± 0.67 h. The Cmax in data set [2] (setting [6]) worked out at 123 ± 28 ng/mL. Moreover, in data set [2], the “AUC (inf), Geometric Mean Ratio” value was 84.87%; the “Cmax, Geometric Mean Ratio” value was found to be 115.53%; the “t½, Geometric Mean Ratio” value came out at 73.31%.

With `CCC(=O)NC[C@@H]1C[C@H]1c1cccc2c1CC(O)O2` (stereo partly drawn) [M13], in data set [1] (setting [4]), the “AUC (inf)” value amounted to 106 ± 32.6 ng·h/mL, the Cmax came to 87.5 ± 24.4 ng/mL, the Tmax is given as 0.50 h and the t½ is reported as 1.00 ± 0.30 h. For the same compound, in data set [1] (setting [5]), the “AUC (inf)” value came to 133 ± 32.9 ng·h/mL, the Cmax worked out at 63.6 ± 24.6 ng/mL, the Tmax is recorded as 0.50 h and the t½ is recorded as 3.51 ± 1.18 h. Further, in data set [1], the “AUC (inf), Geometric Mean Ratio” value is reported as 125.05%; the “Cmax, Geometric Mean Ratio” value was 69.31%; the “t½, Geometric Mean Ratio” value is listed as 349.81%. For the same compound, in data set [2] (Non-Smokers), the “AUC (inf)” value amounted to 337 ± 94 ng·h/mL, the Cmax was found to be 270 ± 71 ng/mL, the Tmax was 0.50 h and the t½ is on record as 1.18 ± 0.50 h. In addition, in data set [2] (Smokers), the “AUC (inf)” value worked out at 329 ± 99 ng·h/mL, the Tmax amounted to 0.75 h and the t½ was found to be 0.89 ± 0.26 h. In data set [2] (setting [6]), the Cmax is 272 ± 86 ng/mL. In data set [2], the “AUC (inf), Geometric Mean Ratio” value is 97.31%; the “Cmax, Geometric Mean Ratio” value is 99.49%; the “t½, Geometric Mean Ratio” value is given as 77.51%.

Regarding `COc1ccc2[nH]cc(CCNC(C)=O)c2c1` [Melatonin], in data set [3], the Tmax is at least 2 h.

With `CCC(=O)NCC1CC1c1cccc2c1C(O)CO2` (stereo not drawn) [M14], the “AUC (inf)” value in data set [1] (setting [4]) turned out to be 4.54 ± 2.39 ng·h/mL; in data set [1] (setting [5]), 42.6 ± 27.3 ng·h/mL; in data set [2] (Non-Smokers), 22.0 ± 24.2 ng·h/mL; in data set [2] (Smokers), 9.45 ± 11.88 ng·h/mL. Moreover, the Cmax in data set [1] (setting [4]) was 1.20 ± 0.40 ng/mL; in data set [1] (setting [5]), 3.20 ± 1.49 ng/mL; in data set [2] (Non-Smokers) it was 6.18 ± 3.15 ng/mL; in data set [2] (setting [6]), 3.72 ± 1.86 ng/mL. For the same compound, the Tmax was 0.75 h in data set [1] (setting [4]), 4.00 h in data set [1] (setting [5]), 0.75 h in data set [2] (Non-Smokers) and 0.75 h in data set [2] (Smokers). Also, the t½ in data set [1] (setting [4]) stood at 2.18 ± 0.97 h; in data set [1] (setting [5]) it was 4.98 ± 1.89 h; in data set [2] (Non-Smokers), 1.84 ± 1.22 h; in data set [2] (Smokers), 1.13 ± 0.54 h. In addition, the “AUC (inf), Geometric Mean Ratio” value in data set [1] is recorded as 944.73%; in data set [2], 42.98%. The “Cmax, Geometric Mean Ratio” value is recorded as 264.58% in data set [1] and 60.17% in data set [2]. The results for the “t½, Geometric Mean Ratio” value in data set [1] and in data set [2] were 243.34% and 65.09%, respectively.

On to `CCC(=O)NC[C@@H]1C[C@H]1c1cccc(O)c1CCO` [M11], for which the “AUC (inf), Geometric Mean Ratio” value in data set [1] is 126.03%; in data set [2], 81.84%. The figures for the “Cmax, Geometric Mean Ratio” value in data set [1] and in data set [2] were 68.71% and 84.50%, respectively. The “t½, Geometric Mean Ratio” value in data set [1] came out at 248.35%; in data set [2], 94.13%. The figures for the Cmax in data set [1] (setting [7]), in data set [2] (setting [10]) and in data set [2] (setting [11]) were 15.8 ± 5.4 ng/mL, 54.9 ± 15.1 ng/mL and 46.2 ± 11.9 ng/mL, respectively. Also, the Tmax in data set [1] (setting [8]) and in data set [2] (setting [12]) was 1 h in each case. The half-life in data set [1] (setting [9]) was 1.61 ± 0.55 h; in data set [2] (human, in vivo, Non-Smokers), 2.14 ± 0.94 h; in data set [2] (human, in vivo, Smokers), 1.99 ± 0.85 h. Also, the AUC(0-inf) in data set [2] (human, in vivo, Non-Smokers) came out at 154 ± 58 ng·h/mL; in data set [2] (human, in vivo, Smokers), 124 ± 42 ng·h/mL.

As for `CCC(=O)NC[C@@H]1C[C@H]1c1cccc(O)c1CC(=O)O` [M9], the “AUC (inf), Geometric Mean Ratio” value in data set [1] is listed as 122.56%; in data set [2], 74.36%. Besides, the results for the “Cmax, Geometric Mean Ratio” value in data set [1] and in data set [2] were 64.94% and 77.18%, respectively. Moreover, the “t½, Geometric Mean Ratio” value in data set [1] stood at 328.02%; in data set [2] it was 85.40%. The results for the Cmax in data set [1] (setting [7]), in data set [2] (setting [10]) and in data set [2] (setting [11]) were 67.6 ± 19.1 ng/mL, 279 ± 82.8 ng/mL and 230 ± 118 ng/mL, respectively. The Tmax in data set [1] (setting [8]) amounted to 0.5 h; in data set [2] (setting [12]) it was 0.75 h. Moreover, the half-life in data set [1] (setting [9]) is 1.14 ± 0.29 h; in data set [2] (human, in vivo, Non-Smokers) it was 1.38 ± 0.45 h; in data set [2] (human, in vivo, Smokers), 1.15 ± 0.17 h. In addition, the AUC(0-inf) is 406 ± 75 ng·h/mL in data set [2] (human, in vivo, Non-Smokers) and 315 ± 112 ng·h/mL in data set [2] (human, in vivo, Smokers).
